Assay results published in PubChem BioAssay (NCI).
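The concentration for 50% growth inhibition is given as GI50. The concentration for full growth arrest is given as TGI.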

Legend:
Assay in all cases: NCI tumour cell line growth inhibition, 384-well format
SW-620 colon = test system: SW-620 colon
K-562 leukemia = test system: K-562 leukemia
SF-268 CNS = test system: SF-268 CNS
MALME-3M melanoma = test system: MALME-3M melanoma
MDA-MB-435 melanoma = test system: MDA-MB-435 melanoma
SF-295 CNS = test system: SF-295 CNS
NCI/ADR-RES ovarian = test system: NCI/ADR-RES ovarian
MCF7 breast = test system: MCF7 breast
A498 renal = test system: A498 renal
UO-31 renal = test system: UO-31 renal
NCI-H23 lung = test system: NCI-H23 lung
OVCAR-3 ovarian = test system: OVCAR-3 ovarian
T-47D breast = test system: T-47D breast
SNB-75 CNS = test system: SNB-75 CNS
HCC-2998 colon = test system: HCC-2998 colon
DU-145 prostate = test system: DU-145 prostate
M14 melanoma = test system: M14 melanoma
BT-549 breast = test system: BT-549 breast
SK-OV-3 ovarian = test system: SK-OV-3 ovarian
UACC-62 melanoma = test system: UACC-62 melanoma
EKVX NSCLC = test system: EKVX NSCLC
ACHN renal = test system: ACHN renal
NCI-H226 lung = test system: NCI-H226 lung
PC-3 prostate = test system: PC-3 prostate
RPMI-8226 leukemia = test system: RPMI-8226 leukemia
NCI-H322M lung = test system: NCI-H322M lung
NCI-H522 lung = test system: NCI-H522 lung
RXF 393 renal = test system: RXF 393 renal
HOP-62 NSCLC = test system: HOP-62 NSCLC
SN12C renal = test system: SN12C renal
HT29 colon = test system: HT29 colon
UACC-257 melanoma = test system: UACC-257 melanoma
HS 578T breast = test system: HS 578T breast
TK-10 renal = test system: TK-10 renal
COLO 205 colon = test system: COLO 205 colon
CCRF-CEM leukemia = test system: CCRF-CEM leukemia
OVCAR-4 ovarian = test system: OVCAR-4 ovarian
SK-MEL-28 melanoma = test system: SK-MEL-28 melanoma
MOLT-4 leukemia = test system: MOLT-4 leukemia
SNB-19 CNS = test system: SNB-19 CNS
HL-60(TB) leukemia = test system: HL-60(TB) leukemia
786-0 renal = test system: 786-0 renal
CAKI-1 renal = test system: CAKI-1 renal
NCI-H460 NSCLC = test system: NCI-H460 NSCLC
HOP-92 NSCLC = test system: HOP-92 NSCLC
SF-539 CNS = test system: SF-539 CNS
SR leukemia = test system: SR leukemia
SK-MEL-5 melanoma = test system: SK-MEL-5 melanoma
IGROV1 ovarian = test system: IGROV1 ovarian
HCT-116 colon = test system: HCT-116 colon
OVCAR-8 ovarian = test system: OVCAR-8 ovarian
LOX IMVI melanoma = test system: LOX IMVI melanoma
MDA-MB-231 breast = test system: MDA-MB-231 breast
U251 glioblastoma = test system: U251 glioblastoma
MDA-MB-468 breast = test system: MDA-MB-468 breast
A549 NSCLC = test system: A549 NSCLC

## C[C@@H]1COCCN1c1cc(-c2ccnn2C)c2ccnc(-c3ccn[nH]3)c2n1
SW-620 colon
  GI50: 0.247 µM
  TGI: 19.3 µM
K-562 leukemia
  GI50: 0.0404 µM
  TGI: 0.125 µM
SF-268 CNS
  GI50: 0.0974 µM
  TGI: 10.5 µM
MALME-3M melanoma
  GI50: 0.0896 µM
  TGI: 0.985 µM
MDA-MB-435 melanoma
  GI50: 0.033 µM
  TGI: 0.456 µM
SF-295 CNS
  GI50: 0.0369 µM
  TGI: 0.173 µM
NCI/ADR-RES ovarian
  GI50: 0.072 µM
  TGI: 0.27 µM
MCF7 breast
  GI50: 0.0188 µM
  TGI: 14.2 µM
A498 renal
  GI50: 0.0193 µM
  TGI: 0.0677 µM
UO-31 renal
  GI50: 0.0586 µM
  TGI: 0.828 µM
NCI-H23 lung
  GI50: 0.0162 µM
  TGI: 0.0563 µM
OVCAR-3 ovarian
  GI50: 0.0911 µM
  TGI: 2.62 µM
T-47D breast
  GI50: 0.389 µM
  TGI: 8.1 µM
SNB-75 CNS
  GI50: 0.264 µM
  TGI: 1.76 µM
HCC-2998 colon
  GI50: < 0.01 µM
  TGI: 0.018 µM
DU-145 prostate
  GI50: 0.053 µM
  TGI: 16.3 µM
M14 melanoma
  GI50: 0.0132 µM
  TGI: 0.0415 µM
BT-549 breast
  GI50: 0.0222 µM
  TGI: 0.0871 µM
SK-OV-3 ovarian
  GI50: 0.0635 µM
  TGI: 0.539 µM
UACC-62 melanoma
  GI50: 0.176 µM
  TGI: 2.14 µM
EKVX NSCLC
  GI50: 0.124 µM
  TGI: 2.48 µM
ACHN renal
  GI50: 0.0498 µM
  TGI: 0.225 µM
NCI-H226 lung
  GI50: 0.341 µM
  TGI: 4.02 µM
PC-3 prostate
  GI50: 0.262 µM
  TGI: 11.8 µM
RPMI-8226 leukemia
  GI50: 0.0174 µM
  TGI: 0.0452 µM
NCI-H322M lung
  GI50: 0.0217 µM
  TGI: 0.213 µM
NCI-H522 lung
  GI50: 0.411 µM
  TGI: 10.7 µM
RXF 393 renal
  GI50: 0.0277 µM
  TGI: 0.105 µM
HOP-62 NSCLC
  GI50: 0.028 µM
  TGI: 0.155 µM
SN12C renal
  GI50: 0.273 µM
  TGI: 6.65 µM
HT29 colon
  GI50: 0.234 µM
  TGI: 0.706 µM
UACC-257 melanoma
  GI50: 1.82 µM
  TGI: 14 µM
HS 578T breast
  GI50: 0.0167 µM
  TGI: 0.0465 µM
TK-10 renal
  GI50: 0.0287 µM
  TGI: 0.0941 µM
COLO 205 colon
  GI50: 0.286 µM
  TGI: 2.58 µM
CCRF-CEM leukemia
  GI50: < 0.01 µM
  TGI: 0.0215 µM
OVCAR-4 ovarian
  GI50: 0.039 µM
  TGI: 2.72 µM
SK-MEL-28 melanoma
  GI50: 1.03 µM
  TGI: 13.9 µM
MOLT-4 leukemia
  GI50: < 0.01 µM
  TGI: 0.0155 µM
SNB-19 CNS
  GI50: 0.282 µM
  TGI: 9.47 µM
HL-60(TB) leukemia
  GI50: 0.0268 µM
  TGI: 0.0839 µM
786-0 renal
  GI50: 0.0373 µM
  TGI: 0.191 µM
CAKI-1 renal
  GI50: 0.142 µM
  TGI: 1.8 µM
NCI-H460 NSCLC
  GI50: 0.0106 µM
  TGI: 0.515 µM
HOP-92 NSCLC
  GI50: 0.0362 µM
  TGI: 0.339 µM
SF-539 CNS
  GI50: 0.0432 µM
  TGI: 0.259 µM
SR leukemia
  GI50: < 0.01 µM
SK-MEL-5 melanoma
  GI50: 0.202 µM
  TGI: 0.873 µM
IGROV1 ovarian
  GI50: 0.0932 µM
  TGI: 2.49 µM
HCT-116 colon
  GI50: 0.0329 µM
  TGI: 7.97 µM
OVCAR-8 ovarian
  GI50: 0.0611 µM
  TGI: 0.357 µM
LOX IMVI melanoma
  GI50: 0.0984 µM
  TGI: 1.09 µM
MDA-MB-231 breast
  GI50: 0.353 µM
  TGI: > 100 µM
U251 glioblastoma
  GI50: 0.123 µM
  TGI: 11.9 µM
MDA-MB-468 breast
  GI50: 0.192 µM
  TGI: 0.973 µM
A549 NSCLC
  GI50: 0.104 µM
  TGI: 2.23 µM
